Reference: patent US5939413A, “Piperazine derivatives” (Fujisawa Pharmaceutical Co., Ltd., priority 1995, dated 1999)
Where a name gives a salt, the structure may show the parent alone.

What follows are compounds tested against T1, h-NK1 receptors (Homo sapiens, UniProt P25103) (assay: 125I-BH-Substance P binding to h-NK1 receptors). Conditions: read-out: inhibition rate of 125I-BH-Substance P binding to h-NK1 receptors.
T1 construct: expressed in transfected cells; host or cells: CHO cells, permanently expressing; crude membranes
Experimental: (a) Crude CHO cell membrane preparation
CHO cells permanently expressing h-NK1 receptors were harvested and homogenized with a Dounce homogenizer at 4° C. in a buffer (0.25 M sucrose, […] Tris-HCl pH 7.4, 10 mM MgCl2, 1 mM EDTA, 5 μg/ml p-APMSF). The homogenate was centrifuged (500×g, 10 minutes), and the pellet was resuspended in the same buffer, homogenized, and centrifuged. The two supernatants were combined and centrifuged (100,000×g, 1 hour). The crude cell membranes thus isolated were resuspended in buffer (25 mM Tris-HCl pH 7.4, 10 mM MgCl2, 1 mM EDTA, 5 μg/ml p-APMSF) and stored at -80° C. until use.
At the end of the incubation period, the content was quickly filtered over a Wahtman GF/C glass filter (pretreated with 0.1% polyethylene imine for 3 hours prior to use) under aspiration. Each of the filters was then washed four times with 5 ml of buffer (50 mM Tris-HCl pH 7.4, 5 mM MnCl2). […] All data presented are specific binding defined as that displaceable by 3 μM unlabeled Substance P.

T1 sequence (P25103 whole entry): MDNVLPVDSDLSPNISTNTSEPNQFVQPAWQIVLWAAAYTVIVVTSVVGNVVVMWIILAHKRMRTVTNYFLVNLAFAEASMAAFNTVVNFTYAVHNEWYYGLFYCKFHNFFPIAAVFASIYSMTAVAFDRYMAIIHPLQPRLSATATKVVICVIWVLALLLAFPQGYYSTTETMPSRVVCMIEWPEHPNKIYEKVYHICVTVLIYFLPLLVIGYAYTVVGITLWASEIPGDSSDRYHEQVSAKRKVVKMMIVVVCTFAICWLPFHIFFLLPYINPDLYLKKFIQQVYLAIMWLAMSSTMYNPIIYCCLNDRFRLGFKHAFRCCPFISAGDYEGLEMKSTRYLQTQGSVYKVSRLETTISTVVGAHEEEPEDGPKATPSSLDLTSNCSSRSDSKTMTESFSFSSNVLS

Row | SMILES | inhibition at 0.1 µg/mL [%]
1 | CN1CCCN(C(=O)CN2C[C@@H](Cc3c[nH]c4ccccc34)N(C(=O)c3cc(C(F)(F)F)cc(C(F)(F)F)c3)CC2=O)CC1 [Example 6, (5R)-4-[3,5-bis(trifluoromethyl)benzoyl]-5-(1H-indol-3-ylmethyl)-1-[(4-methyl-1-homopiperazinyl)carbonylmethyl]-piperazin-2-one hydrochloride] | > 90

Same assay, conditions: test compound at 0.1 μg/ml; crude membranes of CHO cells expressing h-NK1 receptors; read-out: inhibition rate of 125I-BH-Substance P binding to h-NK1 receptors

Row | inhibition at 0.1 µg/mL [%] | SMILES
2 | > 90 | O=C(CCCN1C[C@@H](Cc2c[nH]c3ccccc23)N(C(=O)c2cc(C(F)(F)F)cc(C(F)(F)F)c2)CC1=O)N1CCC(N2CCCCC2)CC1 [Example 7-3]
3 | > 90 | CN1CCCN(C(=O)CCCN2C[C@@H](Cc3c[nH]c4ccccc34)N(C(=O)c3cc(C(F)(F)F)cc(C(F)(F)F)c3)CC2=O)CC1 [Example 7-4]
4 | > 90 | O=C(CN1C[C@@H](Cc2c[nH]c3ccccc23)N(C(=O)c2cc(C(F)(F)F)cc(C(F)(F)F)c2)CC1=O)N1CCC(N2CCCCC2)CC1 [Example 7-1]

Second part, the compound before the results:

Row | SMILES | inhibition at 0.1 µg/mL [%]
5 | CCOC(=O)CCCN1C[C@@H](Cc2c[nH]c3ccccc23)N(C(=O)c2cc(C(F)(F)F)cc(C(F)(F)F)c2)CC1=O [Example 2, (5R)-4-[3,5-bis(trifluoromethyl)benzoyl]-1-[3-(ethoxycarbonyl)propyl]-5-(1H-indol-3-ylmethyl)piperazin-2-one] | > 90
6 | NC(=O)CN1C[C@@H](Cc2c[nH]c3ccccc23)N(C(=O)c2cc(C(F)(F)F)cc(C(F)(F)F)c2)CC1=O [Example 5, (5R)-4-[3,5-bis(trifluoromethyl)benzoyl]-1-(carbamoylmethyl)-5-(1H-indol-3-ylmethyl)piperazin-2-one] | > 90
7 | CCOC(=O)CN1C[C@@H](Cc2c[nH]c3ccccc23)N(C(=O)c2cc(C(F)(F)F)cc(C(F)(F)F)c2)CC1=O [Example 3, (5R)-4-[3,5-bis(trifluoromethyl)benzoyl]-1-(ethoxycarbonylmethyl)-5-(1H-indol-3-ylmethyl)piperazin-2-one] | > 90
